Measurements taken from US10710980B2, “Aminopyridine derivatives and their use as selective ALK-2 inhibitors” (priority 2016, dated 2020).
Like-named read-outs stand apart in the source and are kept apart here.

Key:
ALK5 (aa162-503) = ALK5 (aa162-503) (Homo sapiens (Human), UniProt P36897); experiment: Caliper biochemical peptide phosphorylation assay, ALK5; conditions: 15 μm ATP, 60 min at 30° C.; read-out: ALK5 EPK (IC50)
ALK1 (aa166-493) = ALK1 (aa166-493) (Homo sapiens (Human), UniProt P37023); experiment: Caliper biochemical peptide phosphorylation assay, ALK1; conditions: 15 μm ATP, 60 min at 30° C.; read-out: ALK1 EPK (IC50)
[1] = molecular target: T1, wild-type ALK2 (aa172-499) (Homo sapiens (Human), UniProt Q04771); experiment: ADPGlo biochemical autophosphorylation assay, ALK2; conditions: 15 μm ATP, 60 min at 32° C.
ALK3 (aa198-525) = ALK3 (aa198-525) (Homo sapiens (Human), UniProt P36894); experiment: ADPGlo biochemical autophosphorylation assay, ALK3; conditions: 15 μm ATP, 60 min at 32° C.
[2] = test system: BMP response element (BRE) luciferase reporter in HuH7 cells, BMP6 stimulated; experiment: BMP signaling reporter gene assay; format: cell-based; conditions: Homo sapiens, read-out: MSD BMP RGA IC50
ALK6 (aa168-495) = ALK6 (aa168-495) (Homo sapiens (Human), UniProt O00238); experiment: Caliper biochemical peptide phosphorylation assay, ALK6; conditions: 15 μm ATP, 60 min at 30° C.; read-out: ALK6 EPK (IC50)
[3] = molecular target: T1, wild-type ALK2 (aa172-499); experiment: Caliper biochemical peptide phosphorylation assay, ALK2; conditions: 15 μm ATP, 60 min at 30° C.; read-out: ALK2 EPK (IC50)
[4] = Huh-7, HuH7 BRE-luciferase, BMP6 100 ng/ml, 5 hours

Sequence of ALK3 (aa198-525) (P36894 198-525): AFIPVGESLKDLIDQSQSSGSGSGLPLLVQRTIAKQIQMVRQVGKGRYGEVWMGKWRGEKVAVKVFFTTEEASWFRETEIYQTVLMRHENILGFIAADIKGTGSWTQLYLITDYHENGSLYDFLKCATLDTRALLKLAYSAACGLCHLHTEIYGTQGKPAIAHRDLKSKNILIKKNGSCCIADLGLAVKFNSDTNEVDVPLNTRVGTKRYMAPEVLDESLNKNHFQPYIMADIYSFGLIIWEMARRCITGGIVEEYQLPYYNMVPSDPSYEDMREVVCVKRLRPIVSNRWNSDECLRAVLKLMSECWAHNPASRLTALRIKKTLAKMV
Sequence of ALK6 (aa168-495) (O00238 168-495): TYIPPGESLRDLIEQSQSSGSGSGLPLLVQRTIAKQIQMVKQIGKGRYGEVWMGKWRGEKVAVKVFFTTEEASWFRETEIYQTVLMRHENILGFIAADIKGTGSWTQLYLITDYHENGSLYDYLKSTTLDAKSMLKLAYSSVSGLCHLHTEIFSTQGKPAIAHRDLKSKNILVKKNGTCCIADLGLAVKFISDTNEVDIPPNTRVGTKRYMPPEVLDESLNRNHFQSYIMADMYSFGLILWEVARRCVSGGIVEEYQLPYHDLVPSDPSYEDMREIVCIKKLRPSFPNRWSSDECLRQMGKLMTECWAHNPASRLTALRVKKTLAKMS
Sequence of ALK5 (aa162-503) (P36897 162-503): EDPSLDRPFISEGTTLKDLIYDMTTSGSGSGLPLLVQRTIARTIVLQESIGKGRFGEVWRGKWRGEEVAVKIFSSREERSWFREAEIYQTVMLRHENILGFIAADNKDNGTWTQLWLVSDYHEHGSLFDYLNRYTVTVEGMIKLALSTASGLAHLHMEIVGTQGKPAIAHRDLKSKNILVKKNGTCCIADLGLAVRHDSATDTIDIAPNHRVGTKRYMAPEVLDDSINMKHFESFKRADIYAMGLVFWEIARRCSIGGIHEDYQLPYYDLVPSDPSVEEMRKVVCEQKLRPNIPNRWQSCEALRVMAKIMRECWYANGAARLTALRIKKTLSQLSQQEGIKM
T1 sequence (Q04771 172-499): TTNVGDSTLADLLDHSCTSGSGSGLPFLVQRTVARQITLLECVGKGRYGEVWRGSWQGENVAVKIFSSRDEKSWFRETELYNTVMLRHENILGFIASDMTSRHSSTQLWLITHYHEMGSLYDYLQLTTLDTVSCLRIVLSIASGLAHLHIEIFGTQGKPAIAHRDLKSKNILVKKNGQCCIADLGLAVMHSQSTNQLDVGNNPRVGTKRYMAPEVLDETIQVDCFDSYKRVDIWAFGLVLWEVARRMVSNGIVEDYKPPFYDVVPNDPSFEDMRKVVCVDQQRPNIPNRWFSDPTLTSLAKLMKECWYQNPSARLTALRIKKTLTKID
Sequence of ALK1 (aa166-493) (P37023 166-493): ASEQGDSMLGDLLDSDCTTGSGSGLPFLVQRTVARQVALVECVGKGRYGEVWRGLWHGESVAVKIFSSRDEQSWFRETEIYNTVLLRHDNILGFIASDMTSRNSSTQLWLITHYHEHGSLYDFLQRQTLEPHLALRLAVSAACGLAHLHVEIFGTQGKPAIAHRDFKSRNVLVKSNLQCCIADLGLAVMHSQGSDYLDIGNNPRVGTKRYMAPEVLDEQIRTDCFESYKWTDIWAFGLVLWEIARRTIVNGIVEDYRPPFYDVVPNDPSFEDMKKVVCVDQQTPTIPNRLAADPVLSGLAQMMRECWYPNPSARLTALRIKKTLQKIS

| SMILES | IC50 (ALK5 (aa162-503)) | IC50 (ALK1 (aa166-493)) | IC50 [1] | IC50 (ALK3 (aa198-525)) | IC50 [2, 4] | IC50 (ALK6 (aa168-495)) | IC50 [3] | IC50 ([2]; Huh-7, 5 h) |
| --- | --- | --- | --- | --- | --- | --- | --- | --- |
| CC(C)N1CCN(c2ccc(-c3cnc(N)c(C(=O)N[C@H]4CC[C@H](O)CC4)c3)c(F)c2)CC1 [Example 8, 2-amino-5-(2-fluoro-4-(4-isopropylpiperazin-1-yl)phenyl)-N-((1r,4r)-4-hydroxycyclohexyl)nicotinamide] | 4000 nM | 220 nM | 13 nM | 1900 nM | 69 nM | 5000 nM | 12 nM |  |
| CC(C)N1C[C@@H]2C[C@]2(c2ccc(-c3cnc(N)c(C(=O)N[C@H]4CC[C@H](O)CC4)c3)cc2)C1 [Example 9, 2-amino-N-((1r,4S)-4-hydroxycyclohexyl)-5-(4-((1S,5R)-3-isopropyl-3-azabicyclo[3.1.0]hexan-1-yl)phenyl)nicotinamide] | 3130 nM | 127 nM | 11 nM | 1600 nM | 43 nM | 3130 nM | 11 nM |  |
| Nc1ncc(-c2ccc([C@@]34C[C@@H]3CN(CCN3CCOCC3)C4)cc2)cc1C(=O)N[C@H]1CC[C@H](O)CC1 [Example 10, 2-amino-N-((1r,4R)-4-hydroxycyclohexyl)-5-(4-((1R,5S)-3-(2-morpholinoethyl)-3-azabicyclo[3.1.0]hexan-1-yl)phenyl)nicotinamide] | 2600 nM | 89 nM | 11 nM | 1400 nM | 61 nM | 2500 nM | 11 nM |  |
| Nc1ncc(-c2ccc([C@]34C[C@H]3CN(CCF)C4)cc2)cc1C(=O)N[C@H]1CC[C@H](O)CC1 [Example 11, 2-amino-5-(4-((1S,5R)-3-(2-fluoroethyl)-3-azabicyclo[3.1.0]hexan-1-yl)phenyl)-N-((1r,4S)-4-hydroxycyclohexyl)nicotinamide] | 2400 nM | 150 nM | 9 nM | 1100 nM | 51 nM | 3900 nM | 12 nM |  |
| Nc1ncc(-c2ccc([C@]34C[C@H]3CN(CCN3CCOCC3)C4)cc2)cc1C(=O)N[C@H]1CC[C@H](O)CC1 [Example 13, 2-amino-N-((1r,4S)-4-hydroxycyclohexyl)-5-(4-((1S,5R)-3-(2-morpholinoethyl)-3-azabicyclo[3.1.0]hexan-1-yl)phenyl)nicotinamide] | 3100 nM | 140 nM | 8 nM | 1400 nM | 78 nM | 3000 nM | 13 nM |  |
| COCCN1C[C@@H]2C[C@]2(c2ccc(-c3cnc(N)c(C(=O)N[C@H]4CC[C@H](O)CC4)c3)cc2)C1 [Example 20, 2-amino-N-((1r,4S)-4-hydroxycyclohexyl)-5-(4-((1S,5R)-3-(2-methoxyethyl)-3-azabicyclo[3.1.0]hexan-1-yl)phenyl)nicotinamide] | 3800 nM | 130 nM | 7 nM | 1350 nM | 40 nM | 3950 nM | 17 nM |  |
| Nc1ncc(-c2ccc([C@@]34C[C@@H]3CN(C3CCOCC3)C4)cc2)cc1C(=O)N[C@@H]1CC[C@@H](O)[C@@H](F)C1 [Example 21, 2-amino-N-((1R,3S,4R)-3-fluoro-4-hydroxycyclohexyl)-5-(4-((1R,5S)-3-(tetrahydro-2H-pyran-4-yl)-3-azabicyclo[3.1.0]hexan-1-yl)phenyl)nicotinamide] | 900 nM | 55 nM | 6 nM | 260 nM | 35 nM | 1000 nM | 19 nM |  |
| Nc1ncc(-c2ccc(CN3CC4(CCC4)C3)cc2)cc1C(=O)N[C@H]1CC[C@H](O)CC1 [Example 23, 5-(4-(2-azaspiro[3.3]heptan-2-ylmethyl)phenyl)-2-amino-N-((1r,4r)-4-hydroxycyclohexyl)nicotinamide] | 2700 nM | 250 nM | 9 nM | 1600 nM |  | 2400 nM | 18 nM | 23 nM |
| CC(C)N1C[C@H]2C[C@@]2(c2ccc(-c3cnc(N)c(C(=O)N[C@H]4CC[C@](C)(O)CC4)c3)cc2)C1 [Example 24, 2-amino-N-((1r,4R)-4-hydroxy-4-methylcyclohexyl)-5-(4-((1R,5S)-3-isopropyl-3-azabicyclo[3.1.0]hexan-1-yl)phenyl)nicotinamide] | 6800 nM | 543 nM | 11 nM | 6480 nM | 81 nM | 7300 nM | 16 nM |  |
| Nc1ncc(-c2ccc(N3CCNCC3)cc2F)cc1C(=O)N[C@H]1CC[C@H](O)CC1 [Example 29, 2-amino-5-(2-fluoro-4-(piperazin-1-yl)phenyl)-N-((1r,4r)-4-hydroxycyclohexyl)nicotinamide] | 4000 nM | 280 nM | 22 nM | 2500 nM | 685 nM | 4000 nM | 20 nM |  |

Continued, in another order:

| IC50 (ALK5 (aa162-503)) | IC50 (ALK1 (aa166-493)) | IC50 [1] | IC50 (ALK3 (aa198-525)) | IC50 [2, 4] | IC50 (ALK6 (aa168-495)) | IC50 [3] | SMILES | IC50 ([2]; Huh-7, 5 h) |
| --- | --- | --- | --- | --- | --- | --- | --- | --- |
| 5450 nM | 195 nM | 12 nM | 875 nM | 51 nM | 2400 nM | 12 nM | COCCN1C[C@@H]2C[C@]2(c2ccc(-c3cnc(N)c(C(=O)NC45CCC(O)(CC4)CC5)c3)cc2)C1 [Example 7, 2-amino-N-(4-hydroxybicyclo[2.2.2]octan-1-yl)-5-(4-((1S,5R)-3-(2-methoxyethyl)-3-azabicyclo[3.1.0]hexan-1-yl)phenyl)nicotinamide] |  |
| 3770 nM | 370 nM | 29 nM | 967 nM | 74 nM | 2230 nM | 20 nM | Nc1ncc(-c2ccc([C@@]34C[C@@H]3CN(CCN3CCOCC3)C4)cc2)cc1C(=O)NC12CCC(O)(CC1)CC2 [Example 15, 2-amino-N-(4-hydroxybicyclo[2.2.2]octan-1-yl)-5-(4-((1R,5S)-3-(2-morpholinoethyl)-3-azabicyclo[3.1.0]hexan-1-yl)phenyl)nicotinamide] |  |
| 9900 nM | 240 nM | 12 nM | 1400 nM | 79 nM | 5000 nM | 15 nM | CC(C)N1C[C@@H]2C[C@]2(c2ccc(-c3cnc(N)c(C(=O)NC45CC(CO)(C4)C5)c3)cc2)C1 [Example 16, 2-amino-N-(3-(hydroxymethyl)bicyclo[1.1.1]pentan-1-yl)-5-(4-((1S,5R)-3-isopropyl-3-azabicyclo[3.1.0]hexan-1-yl)phenyl)nicotinamide] |  |
| 1600 nM | 110 nM | 12 nM | 2000 nM | 150 nM | 2400 nM | 14 nM | Nc1ncc(-c2ccc([C@]34C[C@H]3CN(CCC(F)(F)F)C4)cc2)cc1C(=O)N[C@H]1CC[C@H](O)CC1 [Example 17, 2-amino-N-((1r,4S)-4-hydroxycyclohexyl)-5-(4-((1S,5R)-3-(3,3,3-trifluoropropyl)-3-azabicyclo[3.1.0]hexan-1-yl)phenyl)nicotinamide] |  |
| 4300 nM | 230 nM | 18 nM | 1700 nM | 110 nM | 2500 nM | 18 nM | Nc1ncc(-c2ccc([C@]34C[C@H]3CN(C3COC3)C4)cc2)cc1C(=O)N[C@H]1CC[C@H](O)CC1 [Example 26, 2-amino-N-((1r,4S)-4-hydroxycyclohexyl)-5-(4-((1S,5R)-3-(oxetan-3-yl)-3-azabicyclo[3.1.0]hexan-1-yl)phenyl)nicotinamide] |  |
| 9400 nM | 250 nM | 11 nM | 530 nM | 17 nM | 3300 nM | 18 nM | Nc1ncc(-c2ccc([C@]34C[C@H]3CN(C3CCOCC3)C4)cc2)cc1C(=O)NC12CC(CO)(C1)C2 [Example 28, 2-amino-N-(3-(hydroxymethyl)bicyclo[1.1.1]pentan-1-yl)-5-(4-((1S,5R)-3-(tetrahydro-2H-pyran-4-yl)-3-azabicyclo[3.1.0]hexan-1-yl)phenyl)nicotinamide] |  |
| 4000 nM | 210 nM | 7 nM | 500 nM | 68 nM | 2800 nM | 22 nM | Nc1ncc(-c2ccc([C@@]34C[C@@H]3CN(C3CCOCC3)C4)cc2)cc1C(=O)NC12CC(CO)(C1)C2 [Example 30, 2-amino-N-(3-(hydroxymethyl)bicyclo[1.1.1]pentan-1-yl)-5-(4-((1R,5S)-3-(tetrahydro-2H-pyran-4-yl)-3-azabicyclo[3.1.0]hexan-1-yl)phenyl)nicotinamide] |  |
| 3500 nM | 230 nM | 13 nM | 1200 nM | 115 nM | 4500 nM | 20 nM | C[C@@H]1CCCN1Cc1ccc(-c2cnc(N)c(C(=O)N[C@H]3CC[C@H](O)CC3)c2)cc1 [Example 31, 2-amino-N-((1r,4R)-4-hydroxycyclohexyl)-5-(4-(((R)-2-methylpyrrolidin-1-yl)methyl)phenyl)nicotinamide] |  |
